From publication PMC6263664 (CPT: Pharmacometrics & Systems Pharmacology, 2018)
Values joined by “and” are separate entries in the source; they are usually repeats but may differ in a detail not shown here. Equal values may be shown once. Read-outs that look alike come from different tables or passages of the source. Marks after values point to notes of the source that are not given here.

Assays:
[1] = cited from earlier work
P‐glycoprotein (P‐gp) = settings: cited from earlier work
[2] = vs normal renal function, phase I; cited from earlier work
[3] = test system: breast cancer resistance protein; settings: cited from earlier work
[4] = Updated stage 1 / stage 2 population pharmacokinetic analysis; format: in vivo, human; settings: for ACS subjects (θ13) effect on Vc/F, Estimate ± SE / Evening dosing (AM/PM = 2) (θ10) effect on ka, Estimate ± SE / NVAF subjects (θ12) effect on Vc/F, Estimate ± SE: fractional change; for Vd/F: Vc/F (θ3) apparent volume of distribution of the central compartment, Estimate ± SE; for D_WTB (θ11) baseline body weight effect on Vc/F, Estimate ± SE: power coefficient
[5] = cited from earlier work; remark: listed apart in the source
[6] = format: in vivo, human
[7] = test system: cytochrome P450 3A4 (CYP3A4); settings: cited from earlier work
[8] = relative to the typical 70‐kg NVAF subject
[9] = fractional change, stage 2 final ad hoc model
[10] = power coefficient, stage 2 final ad hoc model
[11] = relative to non‐Asian typical patients with NVAF

predicted increase in AUCss, moderate renal impairment ([4]; NVAF, cCrCL 40 mL/minute, compared with normal renal function): 28% | predicted increase in AUCss, mild renal impairment ([4]; NVAF, cCrCL = 65 mL/minute, compared with normal renal function): 9% | increase in exposure with strong/moderate inhibitors of both CYP3A4 and P‐gp ([4]; PPK estimate): ~ 17% | CLR/F (θ2) apparent renal clearance, Estimate ± SE ([4]; cCrCL reference 80 mL/minute, stage 2 final model): 1.57 ± 0.117 L/h | reduced CL/F, ACS ([4]; compared with healthy subjects): 21.5% | reduced CL/F, Asian race ([4]; compared with non‐Asian subjects): 11.9% | ACS subjects (θ13) effect on Vc/F, Estimate ± SE ([4]; stage 2 final model): −0.180 ± 0.0446 | Evening dosing (AM/PM = 2) (θ10) effect on ka, Estimate ± SE ([4]; stage 2 final model): −0.433 ± 0.0236 | NVAF subjects (θ12) effect on Vc/F, Estimate ± SE ([4]; stage 2 final model): −0.0405 ± 0.0491 | ACS subjects (θ13) effect on Vc/F, Estimate ± SE ([4]; updated stage 1 final model): −0.177 ± 0.0449 | Evening dosing (AM/PM = 2) (θ10) effect on ka, Estimate ± SE ([4]; updated stage 1 final model): −0.434 ± 0.0234 | NVAF subjects (θ12) effect on Vc/F, Estimate ± SE ([4]; updated stage 1 final model): −0.0217 ± 0.0501 | effect of strong CYP3A4/P‐gp inducers on CL/F ([4]; full stage 2 model, not included in final model): very small and poorly estimated | CL renal ([4]; human, plasma, oral): 26.2 mL/min | Vd/F ([4]; human, plasma, oral, stage 2 final model): 30 ± 0.971 L | Vd/F ([4]; human, plasma, oral, updated stage 1 final model): 29.8 ± 0.981 L | impact of Asian race on exposure ([4]; in vivo): < 15% | decrease in ka with administration in the evening ([4]; relative to administration in the morning or afternoon): 43% | increase in Vc/F for a 90‐kg subject [4, 8]: 22% | reduction in Vc/F for a 50‐kg subject [4, 8]: 23.3% | Logit for reduction in Frel at 50 mg (I50) (θ9), Estimate ± SE ([4]; stage 2 final model): −0.322 ± 0.0512 | Shape parameter for Frel (γ) (θ8), Estimate ± SE ([4]; stage 2 final model): 0.857 ± 0.0684 | Vp/F (θ5) apparent volume of distribution of the peripheral compartment, Estimate ± SE ([4]; stage 2 final model): 27.0 ± 2.03 L | ka (θ1) absorption rate constant, Estimate ± SE ([4]; stage 2 final model): 0.473 ± 0.0208 h⁻¹ | Logit for reduction in Frel at 50 mg (I50) (θ9), Estimate ± SE ([4]; updated stage 1 final model): −0.321 ± 0.0512 | Shape parameter for Frel (γ) (θ8), Estimate ± SE ([4]; updated stage 1 final model): 0.853 ± 0.0693 | Vp/F (θ5) apparent volume of distribution of the peripheral compartment, Estimate ± SE ([4]; updated stage 1 final model): 26.7 ± 1.89 L | ka (θ1) absorption rate constant, Estimate ± SE ([4]; updated stage 1 final model): 0.471 ± 0.0204 h⁻¹ | change in exposure due to individual covariate (demographic) effects ([4]; vs the reference NVAF subject, except severe renal impairment): < 25% and ≤ 25% | ACS subjects (θ13) effect on Vc/F, Estimate ± SE [6, 9]: −0.184 ± 0.0463 | Evening dosing (AM/PM = 2) (θ10) effect on ka, Estimate ± SE [6, 9]: −0.436 ± 0.0237 | Female (θ15) effect on CLNR/F, Estimate ± SE [6, 9]: −0.227 ± 0.0269 | NVAF subjects (θ12) effect on Vc/F, Estimate ± SE [6, 9]: −0.0530 ± 0.0508 | CL renal ([6]; human, plasma, oral): 26.7 mL/min | Vd/F ([6]; human, plasma, oral): 30 ± 1.04 L | Age (θ14) effect on CLNR/F, Estimate ± SE [6, 10]: −0.414 ± 0.0727 | CL/F higher in Korean subjects ([6]; relative to non‐Asian subjects): 3.3% | CL/F lower in Japanese subjects ([6]; relative to non‐Asian subjects): 15.1% | CL/F lower in other Asian subjects ([6]; relative to non‐Asian subjects): 4.3% | change in daily AUCss, Japanese [6, 11]: 17.7% | change in daily AUCss, Korean [6, 11]: −3.2% | change in daily AUCss, other Asian races [6, 11]: 4.5% | change in population mean total CL/F, Japanese [6, 11]: −15.1% | change in population mean total CL/F, Korean [6, 11]: 3.3% | change in population mean total CL/F, other Asian races [6, 11]: −4.3% | CL/F apparent total clearance ([6]; simple sum of CLR/F and CLNR/F, stage 2 final ad hoc model): 3.62 ^a L/hour | Logit for reduction in Frel at 50 mg (I50) (θ9), Estimate ± SE ([6]; stage 2 final ad hoc model): −0.327 ± 0.0519 | Shape parameter for Frel (γ) (θ8), Estimate ± SE ([6]; stage 2 final ad hoc model): 0.875 ± 0.0779 | Vp/F (θ5) apparent volume of distribution of the peripheral compartment, Estimate ± SE ([6]; stage 2 final ad hoc model): 27.3 ± 2.78 L | ka (θ1) absorption rate constant, Estimate ± SE ([6]; stage 2 final ad hoc model): 0.471 ± 0.0218 h⁻¹
SMILES: COc1ccc(-n2nc(C(N)=O)c3c2C(=O)N(c2ccc(N4CCCCC4=O)cc2)CC3)cc1 [apixaban]
increase in AUC when co‐administered with diltiazem ([1]; diltiazem, a moderate CYP3A4/P‐gp inhibitor): 40% | increase in AUC when co‐administered with ketoconazole ([1]; ketoconazole, a strong CYP3A4/P‐gp inhibitor): 99% | substrate status (P‐glycoprotein (P‐gp)): substrate | higher estimated AUCINF, mild renal impairment [2]: ~ 16% | higher estimated AUCINF, moderate renal impairment [2]: ~29% | higher estimated AUCINF, severe renal impairment [2]: ~44% | substrate status [3]: substrate | D_WTB (θ11) baseline body weight effect on Vc/F, Estimate ± SE ([4]; stage 2 final model): 0.790 ± 0.0645 | D_WTB (θ11) baseline body weight effect on Vc/F, Estimate ± SE ([4]; updated stage 1 final model): 0.806 ± 0.0649 | oral bioavailability [5]: ~ 50% | steady‐state volume of distribution [5]: ~ 21 liters | time dependency of pharmacokinetics [5]: no time dependency | total clearance [5]: 3.3 L/h | Renal clearance as share of total systemic clearance ([5]; following intravenous administration, healthy subjects): ~ 27% | half‐life ([5]; following oral administration): ~ 12 hours | dose dependence of exposure ([5]; therapeutic dose range (2.5–10 mg)): dose‐proportional increase in exposure | D_WTB (θ11) baseline body weight effect on Vc/F, Estimate ± SE [6, 10]: 0.792 ± 0.0648 | pathway of plasma elimination [7]: metabolism primarily by cytochrome P450 3A4 (CYP3A4)
